Laboratory results taken from ChEMBL document CHEMBL3885861, “Open TG-GATES”.

Species: Rattus norvegicus
Assay: Open TG-GATES - Regimen: Single
Format: toxicity, organism-based, Sprague-Dawley
Set-up: regimen Single, gender Male, age 6 weeks
Conditions: in vivo, iv, 2000 mg/kg, route intravenous injection, dose level High; for APTT / Bas / Eos / Fbg / Hb / Ht / Lym / MCH / MCHC / MCV / Mono / PT / Plat / RBC / Ret / WBC: tissue Blood; for KIDNEY_L / KIDNEY_R / KIDNEY_TOTAL: tissue Kidney; for LIVER: tissue Liver; for ALP / ALT / AST / BUN / CRE / Ca / Cl / DBIL / GLC / IP / K / LDH / Na / PL / RALB / TBIL / TC / TG / TP / gamma-GTP: tissue Plasma

CC(=O)OCC1=C(C(=O)O)N2C(=O)[C@@H](NC(=O)Cc3cccs3)[C@H]2SC1 [CEPHALOTHIN]
TERMINAL_BW (3 h): 214.8 g | APTT (3 h): 23.6 s | Bas (3 h): 0% | Eos (3 h): 0.4% | Fbg (3 h): 277.6 mg/dL | Hb (3 h): 13.6 g/dL | Ht (3 h): 39.4% | Lym (3 h): 66.4% | MCH (3 h): 21.1 pg | MCHC (3 h): 34.5% | MCV (3 h): 61.3 fL | Mono (3 h): 3.6% | PT (3 h): 16.6 s | Plat (3 h): 131.7 x10_4/uL | RBC (3 h): 644 x10_4/ul | Ret (3 h): 6.1% | WBC (3 h): 63.2 x10_2/uL | KIDNEY_L (3 h): 0.9 g | KIDNEY_R (3 h): 1 g | KIDNEY_TOTAL (3 h): 1.9 g | LIVER (3 h): 9.6 g | ALP (3 h): 1568.4 IU/L | ALT (3 h): 46.4 IU/L | AST (3 h): 94.6 IU/L | BUN (3 h): 12.2 mg/dL | CRE (3 h): 0.2 mg/dL | Ca (3 h): 10.7 mg/dL | Cl (3 h): 104.4 meq/L | DBIL (3 h): 0.002 mg/dL | GLC (3 h): 173.2 mg/dL | IP (3 h): 9.3 mg/dL | K (3 h): 4.2 meq/L | LDH (3 h): 214.4 IU/L | Na (3 h): 141.8 meq/L | PL (3 h): 136 mg/dL | RALB (3 h): 2.9 g/dL | TBIL (3 h): 0.016 mg/dL | TC (3 h): 68.2 mg/dL | TG (3 h): 79.8 mg/dL | TP (3 h): 5.4 g/dL | gamma-GTP (3 h): 1.2 IU/L | TERMINAL_BW (6 h): 214.6 g | APTT (6 h): 23 s | Bas (6 h): 0% | Eos (6 h): 0.4% | Fbg (6 h): 279.2 mg/dL | Hb (6 h): 13.4 g/dL | Ht (6 h): 39.1% | Lym (6 h): 67.4% | MCH (6 h): 21 pg | MCHC (6 h): 34.3% | MCV (6 h): 61.1 fL | Mono (6 h): 3% | PT (6 h): 16.3 s | Plat (6 h): 121.3 x10_4/uL | RBC (6 h): 639.8 x10_4/ul | Ret (6 h): 5.9% | WBC (6 h): 81.2 x10_2/uL | KIDNEY_L (6 h): 1 g | KIDNEY_R (6 h): 1.1 g | KIDNEY_TOTAL (6 h): 2.1 g | LIVER (6 h): 9.2 g | ALP (6 h): 1347.4 IU/L | ALT (6 h): 42.6 IU/L | AST (6 h): 95.8 IU/L | BUN (6 h): 12 mg/dL | CRE (6 h): 0.1 mg/dL | Ca (6 h): 10.6 mg/dL | Cl (6 h): 105 meq/L | DBIL (6 h): 0.002 mg/dL | GLC (6 h): 171.6 mg/dL | IP (6 h): 9.4 mg/dL | K (6 h): 4.4 meq/L | LDH (6 h): 182.6 IU/L | Na (6 h): 141.2 meq/L | PL (6 h): 145 mg/dL | RALB (6 h): 2.9 g/dL | TBIL (6 h): 0.022 mg/dL | TC (6 h): 73.6 mg/dL | TG (6 h): 136.6 mg/dL | TP (6 h): 5.3 g/dL | gamma-GTP (6 h): 1.2 IU/L | TERMINAL_BW (9 h): 210.5 g | APTT (9 h): 21.8 s | Bas (9 h): 0% | Eos (9 h): 1% | Fbg (9 h): 290.8 mg/dL | Hb (9 h): 13.4 g/dL | Ht (9 h): 39.2% | Lym (9 h): 70.8% | MCH (9 h): 21 pg | MCHC (9 h): 34.2% | MCV (9 h): 61.4 fL | Mono (9 h): 2.8% | PT (9 h): 16.3 s | Plat (9 h): 122.1 x10_4/uL | RBC (9 h): 638.8 x10_4/ul | Ret (9 h): 5.8% | WBC (9 h): 69.5 x10_2/uL | KIDNEY_L (9 h): 1 g | KIDNEY_R (9 h): 1 g | KIDNEY_TOTAL (9 h): 2 g | LIVER (9 h): 8.6 g | ALP (9 h): 1382 IU/L | ALT (9 h): 39.4 IU/L | AST (9 h): 90 IU/L | BUN (9 h): 10.4 mg/dL | CRE (9 h): 0.1 mg/dL | Ca (9 h): 10.5 mg/dL | Cl (9 h): 106 meq/L | DBIL (9 h): 0 mg/dL | GLC (9 h): 176 mg/dL | IP (9 h): 9.3 mg/dL | K (9 h): 4.5 meq/L | LDH (9 h): 162.6 IU/L | Na (9 h): 141 meq/L | PL (9 h): 134.4 mg/dL | RALB (9 h): 2.9 g/dL | TBIL (9 h): 0.028 mg/dL | TC (9 h): 66.4 mg/dL | TG (9 h): 101.2 mg/dL | TP (9 h): 5.3 g/dL | gamma-GTP (9 h): 1.2 IU/L | TERMINAL_BW (24 h): 223.7 g | APTT (24 h): 21.3 s | Bas (24 h): 0% | Eos (24 h): 0.8% | Fbg (24 h): 339.2 mg/dL | Hb (24 h): 13.5 g/dL | Ht (24 h): 38.6% | Lym (24 h): 83.6% | MCH (24 h): 20.4 pg | MCHC (24 h): 34.8% | MCV (24 h): 58.4 fL | Mono (24 h): 2.4% | PT (24 h): 16.2 s | Plat (24 h): 117.9 x10_4/uL | RBC (24 h): 661.4 x10_4/ul | Ret (24 h): 5.4% | WBC (24 h): 77.7 x10_2/uL | KIDNEY_L (24 h): 1 g | KIDNEY_R (24 h): 1 g | KIDNEY_TOTAL (24 h): 2 g | LIVER (24 h): 9 g | ALP (24 h): 1511.8 IU/L | ALT (24 h): 44.8 IU/L | AST (24 h): 78.6 IU/L | BUN (24 h): 15.6 mg/dL | CRE (24 h): 0.2 mg/dL | Ca (24 h): 10.6 mg/dL | Cl (24 h): 106 meq/L | DBIL (24 h): 0.004 mg/dL | GLC (24 h): 183 mg/dL | IP (24 h): 7.3 mg/dL | K (24 h): 4.4 meq/L | LDH (24 h): 162 IU/L | Na (24 h): 142.2 meq/L | PL (24 h): 143.8 mg/dL | RALB (24 h): 3.1 g/dL | TBIL (24 h): 0.02 mg/dL | TC (24 h): 74.6 mg/dL | TG (24 h): 76 mg/dL | TP (24 h): 5.7 g/dL | gamma-GTP (24 h): 1.6 IU/L
